Laboratory results: US20130209515A1, “ANTI-INFECTIVE AND IMMUNOMODULATORY COMPOUNDS” (priority 2005, published 2013)

Test system: mouse genes
Assay: Whole genome expression in blood of mice after 2AA (Affymetrix GeneChip)
Type: in vivo
Settings: for Fold Change X14607 Lipocalin 2 / Fold Change AF220015 Rpt-1; regulatory protein, T lymphocyte 1 / Fold Change AF237910 Membrane-spanning 4-domains, subfamily A / Fold Change AI323359 Csfmr, colony stimulating factor IR, regulator of myeloid cell proliferation / Fold Change AI462015 Nuclear factor of kappa light chain gene enhancer in B-cells inhibitor, alpha / Fold Change AI648846 Solute carrier family 6 / Fold Change AV026617 FBJ osteosarcoma oncogene / Fold Change AV229143 Interferon activated gene (202A) / Fold Change AV318494 Myeloid cell leukemia sequence 1 / Fold Change BB193024 Interferon-induced transmembrane protein-2 / Fold Change BB241535 Suppressor of cytokine signaling 3 / Fold Change BB769628 Colony stimulating factor 2 receptor, beta 1 / Fold Change BB784999 Triggering receptor expressed on myeloid cells 1 / Fold Change BB831725 Suppressor of cytokine signaling 3 / Fold Change BC003839 Myeloid cell leukemia sequence 1 (Mcl1) / Fold Change BC010291 Interferon-inducible protein (Cd225) / Fold Change BC011092 Chemokine (C-C) receptor 1 / Fold Change BC011437 IL-1β / Fold Change BC012653 Chemokine (C-X3-C) receptor 1 / Fold Change BC021916 EMAPI, cytokine activity / Fold Change BC022943 Lymphocyte cytosolic protein 1 / Fold Change BE285634 Interleukin-1 receptor accessory protein / Fold Change NM_008039 Receptor activity [formyl peptide receptor, related sequence 2] (Fpr-rs2) / Fold Change NM_008677 p40phox; intracellular signaling cascade neutrophil cytosolic factor 4 (Ncf4) / Fold Change NM_008879 Pls2, L-fimbrin, calcium ion binding lymphocyte cytosolic proteing 1 (Lep 1) / Fold Change NM_009883 Nuclear factor induced by IL-6 (NF-IL6) / Fold Change NM_011087 Paired-Ig-like receptor A1 (Piral) / Fold Change NM_011313 Cacy; calcium binding protein A6 (calcyclin)cyclin-dependent protein kinase / Fold Change NM_011315 Saa-3 lipid transported activity acute phase response / Fold Change NM_011355 PU.1, transcription factor complex cell growth and/or maintenance / Fold Change NM_011940 Interferon-activatable protein (Ifi202) / Fold Change NM_011999 DCIR; C-type (calcium dependent, carbohydrate recognition domain) lectin / Fold Change NM_030691 Integral to membrane immunoglobulin superfamily, member 6 (Igsf6) / Fold Change NM_030694 Interferon-induced transmembrane protein-3 / Fold Change U05264 Glycoprotein 49B (Gp49b) / Fold Change U72644 Leukocyte specific transcript 1: blood
Procedure: To identify how 2AA pre-exposure promotes host defense to better protect against P. aeruginosa infection, we carried out whole genome gene expression studies of mice for several experimental conditions using the mouse full-thickness skin thermal injury infection model, including naïve; BI alone; 2AA treatment alone; 2AA pretreatment plus BI. The mice were injected IP, as we were not yet aware of the improved benefit obtained with IV delivery. Whole blood was collected after 0, 6, 24, 96 and 192 hr post 2AA injection. Also, pretreated BI mice were exposed to 2AA at 1 and 4 days pre-BI, with blood samples collected 24 hr post-BI. The transcriptome profiles were then determined and compared, and genes with statistically significant differences in their expression levels between the samples were further analyzed by pair-wise comparison (see experimental design, section 2.2).
In experiments to determine if T-aminoacetophenone acts as an immunomodulator, eight 6-week old CD-1 male mice were treated intraperitonialy with 500 μl of a 20 mM solution of T-aminoacetophenone in 0.9% NaCl (aq). A control group of mice was administered only 0.9% NaCl. Blood was withdrawn from the mice at time points of 6 hours, 24 hours, 96 hours, and 192 hours, and RNA was extracted from each blood sample.
Mouse GeneChip™ arrays, manufactured by Affymetrix (Santa Clara, Calif.), were used to compare the profile of gene expression in the blood samples of mice. The biotin-labeled cRNA used to hybridize to the GeneChips was prepared from the RNA extracted from the blood samples according to the Affymetrix GeneChip Expression Analysis Technical Manual (Research Genetics, Huntsville, Ala.).
The expression profiles from treated and untreated mice were compared and an additional constraint of a minimum expression ratio of 1 was applied to control false positives to 5%. The gene list was clustered and the genes showing upregulation at any of the time points considered were selected. […] Most of the genes listed in the table function in immune response or host-pathogen interaction. The table includes several cytokines and their receptors, genes involved in immune cell proliferation, and calcium-binding proteins that have a role in downstream signaling.

SMILES: CC(=O)c1ccccc1N [2AA, 2′-aminoacetophenone]
- Fold Change X14607 Lipocalin 2 (24 h after IP 2AA): 0.2 fold
- Fold Change AF220015 Rpt-1; regulatory protein, T lymphocyte 1 (96 h after IP 2AA): 0.5 fold
- Fold Change AF237910 Membrane-spanning 4-domains, subfamily A (96 h after IP 2AA): 0.0 fold
- Fold Change AI323359 Csfmr, colony stimulating factor IR, regulator of myeloid cell proliferation (96 h after IP 2AA): 0.0 fold
- Fold Change AI462015 Nuclear factor of kappa light chain gene enhancer in B-cells inhibitor, alpha (96 h after IP 2AA): 0.4 fold
- Fold Change AI648846 Solute carrier family 6 (96 h after IP 2AA): 3.7 fold
- Fold Change AV026617 FBJ osteosarcoma oncogene (96 h after IP 2AA): 0.0 fold
- Fold Change AV229143 Interferon activated gene (202A) (96 h after IP 2AA): 6.8 fold
- Fold Change AV318494 Myeloid cell leukemia sequence 1 (96 h after IP 2AA): 0.3 fold
- Fold Change BB193024 Interferon-induced transmembrane protein-2 (96 h after IP 2AA): 0.1 fold
- Fold Change BB241535 Suppressor of cytokine signaling 3 (96 h after IP 2AA): 0.3 fold
- Fold Change BB769628 Colony stimulating factor 2 receptor, beta 1 (96 h after IP 2AA): 3.2 fold
- Fold Change BB784999 Triggering receptor expressed on myeloid cells 1 (96 h after IP 2AA): 4.6 fold
- Fold Change BB831725 Suppressor of cytokine signaling 3 (96 h after IP 2AA): 2.0 fold
- Fold Change BC003839 Myeloid cell leukemia sequence 1 (Mcl1) (96 h after IP 2AA): −0.4 fold
- Fold Change BC010291 Interferon-inducible protein (Cd225) (96 h after IP 2AA): −0.3 fold
- Fold Change BC011092 Chemokine (C-C) receptor 1 (96 h after IP 2AA): −0.7 fold
- Fold Change BC011437 IL-1β (96 h after IP 2AA): 0.2 fold
- Fold Change BC012653 Chemokine (C-X3-C) receptor 1 (96 h after IP 2AA): 0.0 fold
- Fold Change BC021916 EMAPI, cytokine activity (96 h after IP 2AA): −0.3 fold
- Fold Change BC022943 Lymphocyte cytosolic protein 1 (96 h after IP 2AA): −0.4 fold
- Fold Change BE285634 Interleukin-1 receptor accessory protein (96 h after IP 2AA): −1.1 fold
- Fold Change NM_008039 Receptor activity [formyl peptide receptor, related sequence 2] (Fpr-rs2) (96 h after IP 2AA): 0.2 fold
- Fold Change NM_008677 p40phox; intracellular signaling cascade neutrophil cytosolic factor 4 (Ncf4) (96 h after IP 2AA): 0.0 fold
- Fold Change NM_008879 Pls2, L-fimbrin, calcium ion binding lymphocyte cytosolic proteing 1 (Lep 1) (96 h after IP 2AA): 0.0 fold
- Fold Change NM_009883 Nuclear factor induced by IL-6 (NF-IL6) (96 h after IP 2AA): −0.1 fold
- Fold Change NM_011087 Paired-Ig-like receptor A1 (Piral) (96 h after IP 2AA): 0.2 fold
- Fold Change NM_011313 Cacy; calcium binding protein A6 (calcyclin)cyclin-dependent protein kinase (96 h after IP 2AA): 0.5 fold
- Fold Change NM_011315 Saa-3 lipid transported activity acute phase response (96 h after IP 2AA): 1.5 fold
- Fold Change NM_011355 PU.1, transcription factor complex cell growth and/or maintenance (96 h after IP 2AA): 9.2 fold
- Fold Change NM_011940 Interferon-activatable protein (Ifi202) (96 h after IP 2AA): 9.4 fold
- Fold Change NM_011999 DCIR; C-type (calcium dependent, carbohydrate recognition domain) lectin (96 h after IP 2AA): 5.3 fold
- Fold Change NM_030691 Integral to membrane immunoglobulin superfamily, member 6 (Igsf6) (96 h after IP 2AA): 0.0 fold
- Fold Change NM_030694 Interferon-induced transmembrane protein-3 (96 h after IP 2AA): 0.2 fold
- Fold Change U05264 Glycoprotein 49B (Gp49b) (96 h after IP 2AA): 0.6 fold
- Fold Change U72644 Leukocyte specific transcript 1 (96 h after IP 2AA): −0.2 fold
- Fold Change X14607 Lipocalin 2 (96 h after IP 2AA): 0.2 fold
- Fold Change AF220015 Rpt-1; regulatory protein, T lymphocyte 1 (192 h after IP 2AA): 0.6 fold
- Fold Change AF237910 Membrane-spanning 4-domains, subfamily A (192 h after IP 2AA): 0.5 fold
- Fold Change AI323359 Csfmr, colony stimulating factor IR, regulator of myeloid cell proliferation (192 h after IP 2AA): 0.3 fold
- Fold Change AI462015 Nuclear factor of kappa light chain gene enhancer in B-cells inhibitor, alpha (192 h after IP 2AA): 0.7 fold
- Fold Change AI648846 Solute carrier family 6 (192 h after IP 2AA): 7.8 fold
- Fold Change AV026617 FBJ osteosarcoma oncogene (192 h after IP 2AA): 10.5 fold
- Fold Change AV229143 Interferon activated gene (202A) (192 h after IP 2AA): 6.2 fold
- Fold Change AV318494 Myeloid cell leukemia sequence 1 (192 h after IP 2AA): 1.2 fold
- Fold Change BB193024 Interferon-induced transmembrane protein-2 (192 h after IP 2AA): 0.3 fold
- Fold Change BB241535 Suppressor of cytokine signaling 3 (192 h after IP 2AA): 1.0 fold
- Fold Change BB769628 Colony stimulating factor 2 receptor, beta 1 (192 h after IP 2AA): 5.2 fold
- Fold Change BB784999 Triggering receptor expressed on myeloid cells 1 (192 h after IP 2AA): 0.0 fold
- Fold Change BB831725 Suppressor of cytokine signaling 3 (192 h after IP 2AA): 5.9 fold
- Fold Change BC003839 Myeloid cell leukemia sequence 1 (Mcl1) (192 h after IP 2AA): 0.1 fold
- Fold Change BC010291 Interferon-inducible protein (Cd225) (192 h after IP 2AA): −0.3 fold
- Fold Change BC011092 Chemokine (C-C) receptor 1 (192 h after IP 2AA): −0.3 fold
- Fold Change BC011437 IL-1β (192 h after IP 2AA): 0.6 fold
- Fold Change BC012653 Chemokine (C-X3-C) receptor 1 (192 h after IP 2AA): 0.0 fold
- Fold Change BC021916 EMAPI, cytokine activity (192 h after IP 2AA): −0.2 fold
- Fold Change BC022943 Lymphocyte cytosolic protein 1 (192 h after IP 2AA): −0.1 fold
- Fold Change BE285634 Interleukin-1 receptor accessory protein (192 h after IP 2AA): −0.2 fold
- Fold Change NM_008039 Receptor activity [formyl peptide receptor, related sequence 2] (Fpr-rs2) (192 h after IP 2AA): 0.2 fold
- Fold Change NM_008677 p40phox; intracellular signaling cascade neutrophil cytosolic factor 4 (Ncf4) (192 h after IP 2AA): 0.1 fold
- Fold Change NM_008879 Pls2, L-fimbrin, calcium ion binding lymphocyte cytosolic proteing 1 (Lep 1) (192 h after IP 2AA): 0.0 fold
- Fold Change NM_009883 Nuclear factor induced by IL-6 (NF-IL6) (192 h after IP 2AA): −0.1 fold
- Fold Change NM_011087 Paired-Ig-like receptor A1 (Piral) (192 h after IP 2AA): 0.1 fold
- Fold Change NM_011313 Cacy; calcium binding protein A6 (calcyclin)cyclin-dependent protein kinase (192 h after IP 2AA): 1.4 fold
- Fold Change NM_011315 Saa-3 lipid transported activity acute phase response (192 h after IP 2AA): −0.2 fold
- Fold Change NM_011355 PU.1, transcription factor complex cell growth and/or maintenance (192 h after IP 2AA): 6.0 fold
- Fold Change NM_011940 Interferon-activatable protein (Ifi202) (192 h after IP 2AA): 9.1 fold
- Fold Change NM_011999 DCIR; C-type (calcium dependent, carbohydrate recognition domain) lectin (192 h after IP 2AA): 9.6 fold
- Fold Change NM_030691 Integral to membrane immunoglobulin superfamily, member 6 (Igsf6) (192 h after IP 2AA): 5.6 fold
- Fold Change NM_030694 Interferon-induced transmembrane protein-3 (192 h after IP 2AA): 0.6 fold
- Fold Change U05264 Glycoprotein 49B (Gp49b) (192 h after IP 2AA): 0.9 fold
- Fold Change U72644 Leukocyte specific transcript 1 (192 h after IP 2AA): 0.1 fold
- Fold Change X14607 Lipocalin 2 (192 h after IP 2AA): 0.2 fold
- genes with >2× expression differences at least at one point vs control mice (IP 2AA, blood 0, 6, 24, 96, 192 hr): 835 genes
- genes involved in the P38 MAPK pathway induced (post-2AA treatment): 7/8
